Among the data in ChEMBL document CHEMBL1201862, “PubChem BioAssay data set” (2004) are AC50, EC50 and IC50 values, retold here.

Active and inactive are the calls of the source. Some results are limits rather than exact numbers.

The nature of assay [1]: viability loss in HepG2 hepatoma cells – cell-based, cherry-picks, set 5, cytotoxicity control, dose response (AID 1053118). Type of assay: functional.
The nature of assay [2]: viability loss in A549 lung cancer cells – cell-based, cherry-picks, […], cytotoxicity control, dose response (AID 1053119). Type of assay: functional.
Assay [3] has as its target Metabotropic glutamate receptor 5 (Rattus norvegicus, UniProt P31424). Description: Identification of a glycine sulfonamide based non-MPEP site positive allosteric potentiator (PAM) of mGlu5 (calcium_assay). Format: functional.
A short description of assay [4]: Late stage assay provider results from the probe development effort to identify inhibitors of the Plasmodium falciparum M18 Aspartyl Aminopeptidase (M18AAP): radiolabel-based cell-based dose response assay to identify compounds that inhibit P. falciparum growth in RBCs, Set 2.. Type of assay: functional.
Assay [5] can be described thus: Late-stage results from the probe development effort to identify antagonists of arginine vasopressin receptor 1a (AVPR1a): fluorescence-based cell-based dose response AVPR1a inhibition assay. Type of assay: functional.
The target in another assay is Vasopressin V1b receptor (Homo sapiens, UniProt P47901). Description: Late-stage results from the probe development effort to identify antagonists of arginine vasopressin receptor 1a (AVPR1a): fluorescence-based cell-based dose response AVPR1b inhibition counterscreen assay. Format: functional.
Chain of Vasopressin V1b receptor (P47901 whole entry): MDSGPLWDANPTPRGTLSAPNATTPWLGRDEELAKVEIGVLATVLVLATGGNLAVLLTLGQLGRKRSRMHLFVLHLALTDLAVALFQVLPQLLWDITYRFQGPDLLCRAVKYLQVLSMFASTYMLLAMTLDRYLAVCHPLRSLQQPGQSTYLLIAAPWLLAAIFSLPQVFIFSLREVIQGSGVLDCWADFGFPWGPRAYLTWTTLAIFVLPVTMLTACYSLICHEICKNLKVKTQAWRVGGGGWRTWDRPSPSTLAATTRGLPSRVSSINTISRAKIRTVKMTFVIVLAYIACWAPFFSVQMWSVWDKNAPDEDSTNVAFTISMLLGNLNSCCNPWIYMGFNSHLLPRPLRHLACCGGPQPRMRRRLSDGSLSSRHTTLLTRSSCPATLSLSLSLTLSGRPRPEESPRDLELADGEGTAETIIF
The target in the next assay is Vasopressin V2 receptor (Homo sapiens, UniProt P30518). Description: Late-stage results from the probe development effort to identify antagonists of arginine vasopressin receptor 1a (AVPR1a): fluorescence-based cell-based dose response AVPR2 inhibition counterscreen assay. Format: functional. In general terms: A counterscreen serves to expose hits that act by an unwanted route or on another target.
Chain of Vasopressin V2 receptor (P30518 whole entry): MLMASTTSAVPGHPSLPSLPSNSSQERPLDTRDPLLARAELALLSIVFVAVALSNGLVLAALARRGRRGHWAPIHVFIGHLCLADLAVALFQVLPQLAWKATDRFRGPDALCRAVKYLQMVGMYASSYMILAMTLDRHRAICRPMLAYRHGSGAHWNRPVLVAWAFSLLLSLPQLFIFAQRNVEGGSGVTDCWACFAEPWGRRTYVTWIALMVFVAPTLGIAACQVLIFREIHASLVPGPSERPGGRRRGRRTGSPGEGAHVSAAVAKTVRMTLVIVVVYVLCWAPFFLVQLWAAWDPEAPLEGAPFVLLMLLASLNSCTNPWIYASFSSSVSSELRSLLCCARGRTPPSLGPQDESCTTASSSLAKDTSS

Assay [6] can be described thus: Late-stage results from the probe development effort to identify antagonists of arginine vasopressin receptor 1a (AVPR1a): fluorescence-based cell-based dose response OXTR inhibition counterscreen assay. Format: functional.
A short description of assay [7]: CTGF mRNA reduction in DLD1 cells – cell-based, DLD1 colon cancer, RT-qPCR, cherry-pick, dose response (AID 1053122). Format: functional. The note with it: Cancer cell lines. For orientation: Real-time PCR tracks product formation cycle by cycle.
Assay [8] in a line: viability loss in HEK293T cells – cell-based, CellTiter-Glo luminescence, dry powder, set 6, cytotoxicity control, dose response (AID 651949). The note with it: HEK293. Type of assay: functional. (ATP-based viability assays read luminescence as a measure of living cells.)
The target of the next assay is Caspase-6 (Homo sapiens, UniProt P55212). Description: inhibition of CASP6 peptide cleavage – biochemical, VEID-R110 fluorescence, cherry-pick, dose response (AID 720632).
Chain of Caspase-6 (P55212 24-179 limits assumed): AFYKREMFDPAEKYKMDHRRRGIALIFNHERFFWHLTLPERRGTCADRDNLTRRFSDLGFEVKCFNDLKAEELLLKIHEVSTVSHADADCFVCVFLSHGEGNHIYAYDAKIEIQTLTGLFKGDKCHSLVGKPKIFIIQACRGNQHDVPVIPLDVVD
Chain of Caspase-6 (P55212 194-293 limits assumed): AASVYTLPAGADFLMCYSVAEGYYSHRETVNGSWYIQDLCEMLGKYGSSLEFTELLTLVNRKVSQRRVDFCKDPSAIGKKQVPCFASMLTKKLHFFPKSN

Chain of Metabotropic glutamate receptor 5 (P31424 whole entry): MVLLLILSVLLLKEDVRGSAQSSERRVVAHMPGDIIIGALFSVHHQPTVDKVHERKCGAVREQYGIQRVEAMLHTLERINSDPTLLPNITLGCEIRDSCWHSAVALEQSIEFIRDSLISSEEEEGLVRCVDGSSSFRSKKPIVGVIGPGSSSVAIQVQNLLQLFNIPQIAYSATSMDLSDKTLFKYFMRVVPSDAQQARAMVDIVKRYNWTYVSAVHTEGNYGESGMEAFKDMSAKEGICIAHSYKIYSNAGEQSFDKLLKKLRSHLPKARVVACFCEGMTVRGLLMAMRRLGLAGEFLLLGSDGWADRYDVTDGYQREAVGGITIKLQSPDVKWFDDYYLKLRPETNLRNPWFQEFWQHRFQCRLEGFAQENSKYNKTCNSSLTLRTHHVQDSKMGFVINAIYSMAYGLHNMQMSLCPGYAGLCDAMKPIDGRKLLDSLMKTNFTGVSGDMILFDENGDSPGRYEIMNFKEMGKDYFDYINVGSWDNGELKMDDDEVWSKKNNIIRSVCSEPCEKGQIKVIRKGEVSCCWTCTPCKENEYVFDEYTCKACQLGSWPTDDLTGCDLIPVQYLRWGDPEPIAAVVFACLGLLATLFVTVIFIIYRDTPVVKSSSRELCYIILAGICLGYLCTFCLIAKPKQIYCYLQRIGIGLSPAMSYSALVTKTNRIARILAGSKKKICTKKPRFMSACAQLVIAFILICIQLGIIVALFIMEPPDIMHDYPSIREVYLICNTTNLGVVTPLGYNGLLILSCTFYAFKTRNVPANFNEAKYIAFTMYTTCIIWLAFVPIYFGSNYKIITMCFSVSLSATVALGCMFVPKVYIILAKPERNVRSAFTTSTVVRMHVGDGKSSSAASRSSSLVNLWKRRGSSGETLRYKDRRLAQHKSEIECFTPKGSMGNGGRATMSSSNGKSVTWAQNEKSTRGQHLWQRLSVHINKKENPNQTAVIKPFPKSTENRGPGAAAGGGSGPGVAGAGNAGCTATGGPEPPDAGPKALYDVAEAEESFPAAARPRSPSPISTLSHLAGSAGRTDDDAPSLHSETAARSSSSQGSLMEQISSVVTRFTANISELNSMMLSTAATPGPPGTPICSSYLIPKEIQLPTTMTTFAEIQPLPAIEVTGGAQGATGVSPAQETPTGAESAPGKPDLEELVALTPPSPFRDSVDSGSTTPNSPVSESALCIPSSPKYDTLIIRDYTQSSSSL

The AC50 is the midpoint of the concentration-response curve, whichever way the signal moves. On to `O=C(c1cccnc1)N1C[C@@H]2[C@H](c3ccccc31)[C@@H](CO)N2CC1CCCC1`, for which the AC50 in [1] and in [2] was > 52 µM (inactive) each time.

The term EC50 denotes the concentration needed to bring the measured effect to its halfway point. As for `O=C(Nc1cccc(Cl)c1)[C@H]1CCc2ccccc2N1S(=O)(=O)c1cccs1`, the EC50 in assay [3] is > 30 µM (inactive).

As a reminder, the IC50 is the concentration needed to halve the response being measured. As to `CCN(CC)Cc1cc(Nc2ccnc3cc(Cl)ccc23)ccc1O`, in [4], the IC50 is 0.19 µM (active).

With `Cc1ccc(N2CCC(C(=O)N(CC3CC3)c3ccc(Cl)cc3)CC2)nc1`, the IC50 in assay [5] was 0.0201 µM (active); at Vasopressin V1b receptor, 20.8 µM (inactive); at Vasopressin V2 receptor it was 12.3 µM (inactive); in [6] it was 12.4 µM (inactive).

`CO[C@@H](CN(C)S(=O)(=O)c1ccc(C)cc1)[C@@H](C)CN([C@H](C)CO)S(=O)(=O)c1cccc(Cl)c1`: the AC50 in assay [7] was 18.6 µM (active).

For the compound `CS(=O)(=O)c1cccc(-c2nnc(SCc3ccccc3)o2)c1`, in [8], the AC50 was > 52 µM (inactive).

Take `O=C(OC1CCOC1=O)c1ccc(Cl)c(S(=O)(=O)N2CCOCC2)c1` (stereo unspecified): the AC50 on Caspase-6 was 13.5 µM (active).
